Reference: ChEMBL document CHEMBL3861976, “Phthalide Derivatives with Anticoagulation Activities from Angelica sinensis” (J Nat Prod, 2016)
Activity calls are given as the source filed them. The calls are words filed in the database; no cut-off is given here.

Assays:
Assay type in all cases: functional, cell-free
Oryctolagus cuniculus [1] = species on record: Oryctolagus cuniculus; assay: Anticoagulant activity in New Zealand White rabbit plasma assessed as prolongation of activated partial thromboplastin time at 1 mM after 1 min
Oryctolagus cuniculus [2] = species on record: Oryctolagus cuniculus; assay: Anticoagulant activity in New Zealand White rabbit plasma assessed as prolongation of thrombin time at 1 mM incubated for 3 mins followed by thrombin addition
Oryctolagus cuniculus [3] = species on record: Oryctolagus cuniculus; assay: Anticoagulant activity in New Zealand White rabbit plasma assessed as decrease in fibrinogen level at 1 mM after 3 mins

Which Activity (Oryctolagus cuniculus [1]) does the source give for `CCCCC(=O)[C@]12CC[C@H](C=C1C(=O)OC)[C@@H](CCC)[C@@]21OC(=O)C2=C[C@H]3CC[C@]21OO3` here?
The Activity was “Active”.

And the Activity (Oryctolagus cuniculus [2])?
The Activity was “Active”.

What about the Activity (Oryctolagus cuniculus [3]) of the same compound?
The Activity was “Active”.

`CCC/C=C1\OC(=O)C2=C1CC[C@@H]1[C@@H]3CCC4=C(C(=O)OC45[C@H](CCC)[C@@H](CCC)[C@@]54OC(=O)C5=C4CCC=C5)[C@@H]3[C@H]21` (some centres undefined) was tested. Which Activity (Oryctolagus cuniculus [3]) did it give?
Its Activity is “Active”.
